# Molecular target: human P2X3 receptor (Homo sapiens (Human), UniProt P56373)
# Test: Evaluation of human P2X3 receptor inhibitory activity (Test Example 1-1, FDSS 3000, 96-well, 50 nM ATP)
# Format: cell-based
# Conditions: human P2X3 receptor in C6BU-1 cells; Test Example 1-1 (compounds I-001 to I-300)
# Protocol: Stably expressing cell line (C6BU-1 cell transfected with human P2X3 receptor gene (GenBank accession number Y07683) was used. The cells were seeded in a 96-well microtiter plate at a concentration of 8000 cells/well and cultured in the medium (7.0% fetal bovine serum, 7.0% horse serum, 1% antibiotic and antifungal in DMEM) for one day at 37° C. under 5% carbon dioxide atmosphere. The medium was replaced with 4 μM Fluo-3-AM solution (20 mM HEPES, 137 mM NaCl, 5.27 mM KCl, 0.9 mM MgCl2, 1.26 mM CaCl2, 5.6 mM D-glucose, 2.5 mM probenecid, 1% BSA, and 0.08% Pluronic F-127, pH 7.5) and incubated at 37° C. under 5% dioxide carbon atmosphere for one hour. The plate was washed with washing buffer (20 mM HEPES, 137 mM NaCl, 5.27 mM KCl, 0.9 mM MgCl2, 1.26 mM CaCl2, 5.6 mM D-glucose, 2.5 mM probenecid, pH7.5), and each well was added with 40 μL of this buffer. The plate was placed in High-Throughput Screening System. FDSS 3000 (Hamamatsu Photonics K.K.). Measurement of fluorescence intensity by FDSS 3000 was started, and 40 μL of DMSO solutions containing different concentrations of the test compound as prepared by dilution with dilution buffer (20 mM HEPES, 137 mM NaCl, 5.27 mM KCl, 0.9 mM MgCl2, 1.26 mM CaCl2, 5.68 mM D-glucose, 2.5 mM probenecid, 0.1% Pluronic F-127, pH7.5) were dispensed to each well through the built-in automatic dispenser. Five minutes after, 50 nM ATP solution (50 μL) prepared by dilution with the dilution buffer was dispensed through the built-in automatic dispenser, and the measurement of fluorescence intensity was continued for 4 min. For each well, the specific maximum fluorescence intensity was calculated as the ratio of the maximum fluorescence intensity after addition of the ATP solution to the fluorescence intensity at the starting of the measurement. The 50% inhibitory concentration (IC50) was calculated under the assumption that the specific maximum fluorescence intensity without test compound is 0% inhibition and that the specific maximum fluorescence intensity when the dilution buffer was added in place of ATP solution is 100% inhibition, to evaluate the inhibitory activity of the test compound. FDSS software (Hamamatsu Photonics K.K.) was used for calculation of the specific maximum fluorescence intensity. IC50 was calculated using Microsoft Excel (Microsoft Corporation) and XLfit (idbs Ltd.)
# The data of the compounds I-001 to I-300 are the results by the method mentioned in Test Example 1-1, and the data of the compounds I-301 to I-483 are the results by the method mentioned in Test Example 1-2.
# Chain of human P2X3 receptor (P56373 whole entry): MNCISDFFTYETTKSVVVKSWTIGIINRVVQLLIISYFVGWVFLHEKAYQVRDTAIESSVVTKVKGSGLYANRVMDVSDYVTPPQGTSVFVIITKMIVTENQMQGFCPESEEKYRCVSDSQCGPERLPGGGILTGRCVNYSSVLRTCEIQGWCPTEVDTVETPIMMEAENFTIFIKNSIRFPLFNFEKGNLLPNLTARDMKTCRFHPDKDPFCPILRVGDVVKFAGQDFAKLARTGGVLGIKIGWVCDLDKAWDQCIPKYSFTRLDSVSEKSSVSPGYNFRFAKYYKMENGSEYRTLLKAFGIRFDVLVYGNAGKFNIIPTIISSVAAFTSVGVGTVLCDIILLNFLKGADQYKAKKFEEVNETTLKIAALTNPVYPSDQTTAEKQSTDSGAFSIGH
row,SMILES,IC50
1,"Cc1noc(-c2cn(Cc3ccc(Cl)cc3)/c(=N/c3ccc(Oc4cccc(F)n4)cc3)[nH]c2=O)n1 [Compound I-190, 1-(4-chlorobenzyl)-2-[4-(6-fluoro-2-pyridyloxy)phenylamino]-5-(3-methyl-1,2,4-oxadiazol-5-yl)pyrimidin-4(1H)-one]",6 nM
2,O=C(NC1CCOCC1)c1cn(Cc2ccc(Cl)cc2)c(Nc2ccc(Oc3cccc(F)n3)cc2)nc1=O [Compound I-156],6 nM
3,CCn1c(=O)cc(Nc2ccc(Oc3ccc(C(=O)OC)cc3)cn2)n(Cc2ccc(Cl)cc2)c1=O [Compound I-052],21 nM
4,"CCn1c(=O)cc(Nc2ccc(Oc3cccc(C(=O)OC)c3)cc2)n(Cc2ccc(Cl)cc2)c1=O [Compound I-008, 1-(4-chlorobenzyl)-3-ethyl-6-[4-(3-methoxycarbonylphenoxy)phenylamino]pyrimidin-2,4(1H,3H)-dione]",38 nM
5,CCc1oc2ccc(/N=c3\[nH]cc(C=NN4CCOCC4)c(=O)n3Cc3ccc(Cl)cc3)cc2c1C [Compound I-048],22 nM
6,CCn1c(=O)cc(Nc2ccc(Oc3cccc(C(N)=O)c3)c(C)n2)n(Cc2ccc(Cl)cc2)c1=O [Compound I-260],36 nM
7,CCn1c(=O)cc(Nc2ccc(Oc3ccc(C(=O)O)nn3)cc2)n(Cc2ccc(Cl)cc2)c1=O [Compound I-174],36 nM
8,CCOC(=O)c1cnc(Nc2ccc(Oc3cccc(C(N)=O)n3)cc2)n(Cc2ccc(Cl)cc2)c1=O [Compound I-043],7 nM
9,C[C@@H](Cn1c(=O)cc(Nc2ccc(Oc3cccc(F)n3)cc2)n(Cc2ccc(Cl)cc2)c1=O)C(=O)O [Compound I-120],6 nM
10,Cc1noc(-c2c[nH]/c(=N\c3ccc(Oc4ccc(F)cn4)cc3)n(Cc3ccc(Cl)cc3)c2=O)n1 [Compound I-151],31 nM
11,CCc1oc2ccc(Nc3ncc(C(N)=O)c(=O)n3Cc3ccc(Cl)cc3)cc2c1C [Compound I-020],50 nM
12,O=C(Nc1c[nH]/c(=N\c2ccc(Oc3ccon3)cc2)n(Cc2ccc(Cl)cc2)c1=O)c1cocn1 [Compound I-268],85 nM
13,Cc1nocc1C(=O)Nc1c[nH]/c(=N\c2ccc(Oc3ccon3)cc2)n(Cc2ccc(Cl)cc2)c1=O [Compound I-264],15 nM
14,CCn1c(=O)cc(Nc2ccc(Oc3cccc(C(=O)O)n3)c(F)c2)n(Cc2ccc(Cl)cc2)c1=O [Compound I-033],1 nM
15,CCc1oc2ccc(/N=c3\[nH]cc(NC(=O)C4CCOCC4)c(=O)n3Cc3ccc(Cl)cn3)cc2c1C [Compound I-262],98 nM
16,CCC(=O)N(C)c1c[nH]/c(=N\c2ccc(Oc3cccc(C#N)n3)cc2)n(Cc2ccc(Cl)cc2)c1=O [Compound I-198],12 nM
17,Cc1noc(C)c1C(=O)Nc1c[nH]/c(=N\c2ccc(Oc3ccon3)cc2)n(Cc2ccc(Cl)cc2)c1=O [Compound I-256],14 nM
18,CCC(=O)Nc1c[nH]/c(=N\c2ccc(Oc3cnc(C#N)cn3)cc2)n(Cc2ccc(Cl)cc2)c1=O [Compound I-138],4 nM
19,NC(=O)c1c[nH]/c(=N\c2ccc(Oc3ccc(F)cn3)c(F)c2)n(Cc2ccc(Cl)cc2)c1=O [Compound I-208],31 nM
20,NC(=O)c1cccc(Oc2ccc(Nc3nc(=O)c(C(=O)NC4CCOCC4)cn3Cc3ccc(Cl)cc3)cc2)n1 [Compound I-217],5 nM
21,Cc1cc(Nc2nc(=O)c(C(=O)NC3CCOCC3)cn2Cc2ccc(Cl)cc2)ccc1Oc1cccc(F)n1 [Compound I-157],11 nM
22,O=C(NCCO)c1c[nH]/c(=N\c2ccc(Oc3ccon3)cc2)n(Cc2ccc(Cl)cc2)c1=O [Compound I-101],71 nM
23,COC(=O)[C@@H](C)Cn1c(=O)cc(Nc2ccc(Oc3cccc(F)n3)cc2)n(Cc2ccc(Cl)cc2)c1=O [Compound I-116],6 nM
24,CCCn1c(=O)cc(Nc2ccc(Oc3cccc(C(=O)O)c3)cc2)n(Cc2ccc(Cl)cc2)c1=O [Compound I-169],11 nM

row,SMILES,IC50
1,CCc1oc2ccc(/N=c3\[nH]cc(CC(C)=O)c(=O)n3Cc3ccc(Cl)cc3)cc2c1C [Compound I-102],267 nM
2,CCOC(=O)c1cccc(Oc2ccc(Nc3cc(=O)n(CC)c(=O)n3Cc3ccc(Cl)cc3)cn2)c1 [Compound I-060],160 nM
3,CCC(=O)Nc1c[nH]/c(=N\c2ccc(Oc3cccc(C(N)=O)n3)cc2)n(Cc2ccc(Cl)cc2)c1=O [Compound I-093],9 nM
4,CCCn1c(=O)cc(Nc2ccc(Oc3cccc(C#N)n3)cc2)n(Cc2ccc(Cl)cc2)c1=O [Compound I-164],10 nM
5,O=C(O)c1cccc(Oc2ccc(Nc3ncc(C(=O)O)c(=O)n3Cc3ccc(Cl)cc3)cc2)n1 [Compound I-050],67 nM
6,O=C(NC1CCOCC1)c1cn(Cc2ccc(F)cc2)c(Nc2ccc(Oc3cccc(F)n3)cc2)nc1=O [Compound I-281],41 nM
7,NC(=O)c1c[nH]/c(=N\c2ccc(Oc3ccc(F)cn3)cc2)n(Cc2ccc(Cl)cc2)c1=O [Compound I-142],26 nM
8,O=C(Nc1c[nH]/c(=N\c2ccc(Oc3ccon3)cc2)n(Cc2ccc(Cl)cc2)c1=O)C1CCOC1 (stereo not drawn) [Compound I-192],6 nM
9,CCc1c[nH]/c(=N\c2ccc(Oc3cccc(C#N)n3)cc2)n(Cc2ccc(Cl)cc2)c1=O [Compound I-129],61 nM
10,O=C(Nc1c[nH]/c(=N\c2ccc(Oc3ccon3)cc2)n(Cc2ccc(Cl)cc2)c1=O)c1ccno1 [Compound I-223],78 nM
11,O=C(NC1CCOCC1)c1cn(Cc2ccc(Cl)cc2)c(Nc2ccc(Oc3ccc(F)cn3)cc2)nc1=O [Compound I-158],11 nM
12,O=C(NC1CCOCC1)c1cn(Cc2ccccc2)c(Nc2ccc(Oc3cccc(F)n3)cc2)nc1=O [Compound I-280],139 nM
13,CCn1c(=O)cc(Nc2ccc(Oc3ccc(C(=O)O)cc3)cn2)n(Cc2ccc(Cl)cc2)c1=O [Compound I-054],43 nM
14,CCc1c[nH]/c(=N\c2ccc(Oc3cccc(C(=O)O)n3)c(C)c2)n(Cc2ccc(Cl)cc2)c1=O [Compound I-148],59 nM
15,CCOC(=O)c1c[nH]/c(=N\c2ccc(Oc3cccc(C#N)n3)cc2)n(Cc2ccc(Cl)cc2)c1=O [Compound I-153],21 nM
16,C[C@@H](Cn1c(=O)cc(Nc2ccc(Oc3cccc(C(N)=O)n3)c(F)c2)n(Cc2ccc(Cl)cc2)c1=O)C(=O)O [Compound I-126],3 nM
17,CCC(=O)Nc1c[nH]/c(=N\c2ccc(Oc3ccon3)cc2)n(Cc2ccc(Cl)cc2)c1=O [Compound I-088],49 nM
18,CCn1c(=O)cc(Nc2ccc(Oc3cccc(C(=O)O)c3)cn2)n(Cc2ccc(Cl)cc2)c1=O [Compound I-053],20 nM
19,COC(=O)Nc1c[nH]/c(=N\c2ccc(Oc3cccc(C(N)=O)n3)cc2)n(Cc2ccc(Cl)cc2)c1=O [Compound I-007],23 nM
20,N#Cc1cccc(Oc2ccc(Nc3cc(=O)[nH]c(=O)n3Cc3ccc(Cl)cc3)cc2)n1 [Compound I-064],36 nM
21,NC(=O)c1c[nH]/c(=N\c2ccc(Oc3cccc(F)n3)cc2)n(Cc2ccc(Cl)cc2)c1=O [Compound I-034],14 nM
22,Cc1nc(Nc2cc(=O)n(C[C@H](C)C(=O)O)c(=O)n2Cc2ccc(Cl)cc2)ccc1Oc1cccc(F)c1 [Compound I-245],58 nM
23,O=C(NC1CCOCC1)c1cn(Cc2ccc(Cl)cc2)c(Nc2ccc(Oc3ccon3)cc2)nc1=O [Compound I-175],37 nM
24,COc1ccc(-c2c[nH]/c(=N\c3ccc(Oc4ccon4)cc3)n(Cc3ccc(Cl)cc3)c2=O)cn1 [Compound I-204],198 nM

# Source: patent US9550763B2, “Heterocyclic ring and carbocyclic derivative” (Shionogi & Co., Ltd., priority 2012, dated 2017)
